Assay results as given in ChEMBL document CHEMBL1156245, “Structure-activity relationships for substrate-based inhibitors of human complement factor B” (J Med Chem, 2009).
Peptide text beside a SMILES is read from it.

Key:
Complement factor B [1] = biological target: T1, Complement factor B (Homo sapiens, UniProt P00751); experiment: Inhibition of human complement factor B treated for 5 mins before addition of substrate Ac-SHLGLAR-pNA at pH 9.5 by chromogenic assay
Complement factor B [2] = biological target: T1, Complement factor B; experiment: Inhibition of human C3/C5 convertase assessed as inhibition of C3 cleavage
[3] = Solubility in water; type: physicochemical; conditions: buffer
Complement factor B [4] = biological target: T1, Complement factor B; experiment: Inhibition of human C3 convertase assessed as inhibition of C3a and C3b fragment production at pH 7.4 after 30 mins by SDS-PAGE
[5] = Metabolic stability in human serum assessed as compound remaining at 1 mM after 3 hrs by LC-MS analysis; type: ADME, cell-free; conditions: read-out: Stability
[6] = Inhibition of cobra C3/C5 convertase assessed as inhibition of C3a and C5a fragment formation; set-up: species or system Naja naja
[7] = Inhibition of human alternative complement system-mediated membrane attack complex formation by ELISA
[8] = Inhibition of alternative complement system-mediated hemolysis of rabbit erythrocytes assessed as haemoglobin release after 30 mins by UV/vis spectrophotometry; set-up: species or system Oryctolagus cuniculus
Complement factor B [9] = biological target: T1, Complement factor B; experiment: Inhibition of human C3 convertase assessed as inhibition of C3a and C3b fragment production at pH 7.4 after 30 mins by SDS-PAGE using 7% (w/v) polyacrylamide gel
Complement factor B [10] = biological target: T1, Complement factor B; experiment: Inhibition of human complement factor B at pH 9.5 by chromogenic assay

T1 sequence (P00751 whole entry): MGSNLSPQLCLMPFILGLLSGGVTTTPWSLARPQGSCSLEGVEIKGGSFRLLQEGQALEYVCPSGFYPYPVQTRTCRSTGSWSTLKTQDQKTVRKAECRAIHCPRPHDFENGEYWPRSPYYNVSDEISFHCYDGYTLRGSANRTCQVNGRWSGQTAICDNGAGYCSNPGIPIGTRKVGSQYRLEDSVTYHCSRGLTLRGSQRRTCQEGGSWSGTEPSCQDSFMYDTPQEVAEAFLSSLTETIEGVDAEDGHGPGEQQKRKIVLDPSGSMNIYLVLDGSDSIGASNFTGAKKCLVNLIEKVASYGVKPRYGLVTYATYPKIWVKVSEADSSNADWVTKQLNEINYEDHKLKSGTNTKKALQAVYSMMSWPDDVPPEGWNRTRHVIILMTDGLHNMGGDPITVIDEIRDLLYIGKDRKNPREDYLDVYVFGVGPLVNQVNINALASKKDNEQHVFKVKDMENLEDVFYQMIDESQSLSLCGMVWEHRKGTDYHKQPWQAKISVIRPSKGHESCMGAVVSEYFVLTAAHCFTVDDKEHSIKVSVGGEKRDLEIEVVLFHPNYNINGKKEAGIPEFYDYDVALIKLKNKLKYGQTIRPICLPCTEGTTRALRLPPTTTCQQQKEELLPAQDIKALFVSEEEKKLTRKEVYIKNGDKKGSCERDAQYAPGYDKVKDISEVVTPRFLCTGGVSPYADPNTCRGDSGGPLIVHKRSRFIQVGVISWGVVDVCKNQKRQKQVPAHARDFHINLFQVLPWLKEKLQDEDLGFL

Q: With Ac-HLLLAR-OH as the molecule, how does the IC50 (Complement factor B [1]) read?
A: Its IC50 is 3 µM.

Q: Which IC50 (Complement factor B [1]) does the source give for `CCCC[C@H](NC(=O)[C@H](Cc1cnc[nH]1)NC(=O)[C@H](CO)NC(C)=O)C(=O)N[C@@H](CC(C)C)C(=O)N[C@@H](CC(C)C)C(=O)N[C@@H](C)C(=O)N[C@@H](CCCNC(=N)N)C(=O)O` (HELM PEPTIDE1{[ac].S.H.[Nle].L.L.A.R}$$$$V2.0) here?
A: The IC50 was 5 µM.

Q: For `CC(=O)N[C@@H](CC(C)C)C(=O)N[C@@H](CC(C)C)C(=O)N[C@@H](C)C(=O)N[C@@H](CCCN=C(N)N)C(=O)O` (Ac-LLAR-OH), which IC50 (Complement factor B [1]) is on record?
A: Its IC50 is 12 µM.

Q: Which IC50 (Complement factor B [2]) does the source give for `CC[C@H](C)[C@H](N)C(=O)N[C@H]1CSSC[C@@H](C(=O)N[C@H](C(N)=O)[C@@H](C)O)NC(=O)[C@H](CCCN=C(N)N)NC(=O)[C@H](Cc2cnc[nH]2)NC(=O)[C@H](Cc2cnc[nH]2)NC(=O)CNC(=O)[C@H](Cc2c[nH]c3ccccc23)NC(=O)[C@H](CC(=O)O)NC(=O)[C@H](CCC(N)=O)NC(=O)[C@H](C(C)C)NC(=O)[C@H](C(C)C)NC1=O` [COMPSTATIN] here?
A: Its IC50 is 12 µM.

Q: Which solubility [3] does the source give for Ac-RLLLAR-OH [listing 1 of 2 here] here?
A: The solubility was “Soluble”.

Q: What about the IC50 (Complement factor B [1]) of the same molecule?
A: The IC50 was 0.6 µM.

Q: What about the IC50 (Complement factor B [4]) of the same molecule?
A: Its IC50 is 50 µM.

Q: What about the remaining at 3 h, 1000 µM [5] of the same molecule?
A: The remaining at 3 h, 1000 µM was 80%.

Q: With Ac-LLLAR-OH as the molecule, how does the IC50 (Complement factor B [1]) read?
A: The IC50 was 3 µM.

Q: With `N=C(N)Nc1ccc(C(=O)Oc2ccc3cc(C(=N)N)ccc3c2)cc1` as the molecule, how does the IC50 [6] read?
A: The IC50 was 4 µM.

Q: With Ac-SHLGLAR-OH as the molecule, how does the IC50 (Complement factor B [1]) read?
A: Its IC50 is 19 µM.

Q: And the remaining at 3 h, 1000 µM [5]?
A: Its remaining at 3 h, 1000 µM is 80%.

Q: What about the IC50 [7] of the same molecule?
A: Its IC50 is 21.1 µM.

Q: What about the IC50 [8] of the same molecule?
A: The IC50 was 243 µM.

Q: With `CC(=O)N[C@@H](Cc1ccc(F)cc1)C(=O)N[C@@H](Cc1cnc[nH]1)C(=O)N[C@@H](CC(C)C)C(=O)NCC(=O)N[C@@H](CC(C)C)C(=O)N[C@@H](C)C(=O)N[C@@H](CCCN=C(N)N)C(=O)O` (HELM PEPTIDE1{[ac].[O=C([C@H](Cc1ccc(F)cc1)N[*:1])[*:2]].H.L.G.L.A.R}$$$$V2.0) as the molecule, how does the IC50 (Complement factor B [1]) read?
A: Its IC50 is 13 µM.

Q: With `CC(C)C[C@H](NC(=O)[C@H](CCC1CCCCC1)NC(=O)[C@H](CC(C)C)NC(=O)[C@H](Cc1cnc[nH]1)NC(=O)[C@@H](N)CO)C(=O)N[C@@H](C)C(=O)N[C@@H](CCCN=C(N)N)C(=O)O` (HELM PEPTIDE1{S.H.L.[O=C([C@H](CCC1CCCCC1)N[*:1])[*:2]].L.A.R}$$$$V2.0) as the molecule, how does the IC50 (Complement factor B [1]) read?
A: Its IC50 is 5 µM.

Q: For Ac-RLLLGR-OH, which IC50 (Complement factor B [1]) is on record?
A: The IC50 was 7 µM.

Q: Which inhibition (Complement factor B [9]) does the source give for Ac-RLLLAR-OH [listing 2 of 2 here] here?
A: The inhibition was “Dose-dependent effect”.

Q: And the IC50 [7]?
A: Its IC50 is 1 µM.

Q: And the IC50 [8]?
A: The IC50 was 20.8 µM.

Q: Which IC50 (Complement factor B [10]) does the source give for `CC(=O)N[C@@H](CO)C(=O)N[C@@H](Cc1cnc[nH]1)C(=O)N[C@@H](CC(C)C)C(=O)NCC(=O)N[C@@H](CC(C)C)C(=O)N[C@@H](C)C(=O)N[C@@H](CCCN=C(N)N)C(=O)Nc1ccc([N+](=O)[O-])cc1` (HELM PEPTIDE1{[ac].S.H.L.G.L.A.R.[O=[N+]([O-])c1ccc(N[*:1])cc1]}$$$$V2.0) here?
A: Its IC50 is 19 µM.

Q: Which IC50 (Complement factor B [1]) does the source give for Ac-SHLLLAR-OH here?
A: The IC50 was 4 µM.

Q: Which IC50 (Complement factor B [1]) does the source give for `CC(=O)N[C@@H](CCCNC(=N)N)C(=O)N[C@@H](CC(C)C)C(=O)N[C@@H](CC(C)(C)C)C(=O)N[C@@H](CC(C)C)C(=O)N[C@@H](C)C(=O)N[C@@H](CCCNC(=N)N)C(=O)O` (HELM PEPTIDE1{[ac].R.L.[CC(C)(C)C[C@H](N[*:1])C(=O)[*:2]].L.A.R}$$$$V2.0) here?
A: The IC50 was 0.25 µM.

Q: And the inhibition (Complement factor B [9])?
A: Its inhibition is “Dose-dependent effect”.

Q: What about the IC50 (Complement factor B [4]) of the same molecule?
A: The IC50 was 10 µM.

Q: What about the IC50 [7] of the same molecule?
A: Its IC50 is 0.32 µM.

Q: And the IC50 [8]?
A: Its IC50 is 9.7 µM.

Q: For Ac-FHLGLAR-OH, which IC50 (Complement factor B [1]) is on record?
A: The IC50 was 23 µM.
